Values of other authors, collected in patent US5834251A, “Methods of modifying carbohydrate moieties” (Alko Group Ltd., priority 1994, dated 1998).

Molecular target: α-2,6 Sialyltransferase, EC 2.4.99.1, from rat liver (Rattus norvegicus, UniProt P13721)
Conditions: read-out: Km for the sugar donor CMP-NeuAc; commercially available enzyme, such as that from rat liver

Chain of α-2,6 Sialyltransferase, EC 2.4.99.1, from rat liver (P13721 whole entry): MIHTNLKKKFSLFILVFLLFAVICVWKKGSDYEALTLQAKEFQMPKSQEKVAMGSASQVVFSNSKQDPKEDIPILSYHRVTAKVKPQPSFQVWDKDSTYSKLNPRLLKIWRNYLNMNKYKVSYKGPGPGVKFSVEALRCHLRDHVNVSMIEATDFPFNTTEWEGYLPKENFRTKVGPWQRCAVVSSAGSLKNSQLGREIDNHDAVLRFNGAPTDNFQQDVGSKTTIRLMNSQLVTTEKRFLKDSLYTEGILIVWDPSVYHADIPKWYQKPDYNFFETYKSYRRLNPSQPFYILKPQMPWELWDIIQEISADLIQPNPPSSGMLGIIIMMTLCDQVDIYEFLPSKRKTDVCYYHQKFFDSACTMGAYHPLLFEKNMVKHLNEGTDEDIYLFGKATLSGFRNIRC

For `CC(=O)NC1C(O)CC(OP(=O)(O)OCC2OC(n3ccc(N)nc3=O)C(O)C2O)(C(=O)O)OC1C(O)C(O)CO` (stereo not shown) [CMP-NeuAc, CMP-N-acetylneuraminic acid], the Km is listed as 85 µM.
